This is an account of results in ChEMBL document CHEMBL1909046, “DrugMatrix in vitro pharmacology data”.

One may read the IC50 as the concentration needed to halve the response being measured. One may read the Ki as a measure of affinity in units of concentration, obtained from inhibition or displacement.

The target in test [1] is T1, Alpha-1A adrenergic receptor (Rattus norvegicus, UniProt P43140).
T1 sequence (P43140 whole entry): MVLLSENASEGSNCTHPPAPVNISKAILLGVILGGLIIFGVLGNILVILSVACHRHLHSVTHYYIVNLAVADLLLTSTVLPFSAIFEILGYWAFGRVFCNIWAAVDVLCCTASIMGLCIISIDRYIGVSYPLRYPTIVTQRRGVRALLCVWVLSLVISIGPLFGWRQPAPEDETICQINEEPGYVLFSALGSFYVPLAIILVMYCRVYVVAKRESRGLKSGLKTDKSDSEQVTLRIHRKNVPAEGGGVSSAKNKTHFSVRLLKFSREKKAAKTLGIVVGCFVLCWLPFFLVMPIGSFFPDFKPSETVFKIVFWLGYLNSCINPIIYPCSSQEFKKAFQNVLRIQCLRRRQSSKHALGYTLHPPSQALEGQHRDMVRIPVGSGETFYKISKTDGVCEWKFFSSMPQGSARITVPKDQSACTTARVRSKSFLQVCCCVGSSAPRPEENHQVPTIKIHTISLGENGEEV
Description: DRUGMATRIX: Alpha-1A adrenergic receptor radioligand binding (ligand: prazosin). The note with it: Not Active = under 50% inhibition at 10 µM. In kind it is cell membranes, Wistar, Submaxillary gland, Membrane.

For a further test, the target named is Vasopressin V1a receptor (Homo sapiens, UniProt P37288). It is filed as cell membranes, Membrane. The settings on record: hek293. Note: in other assays of this panel Not Active means under 50% inhibition at 10 µM.
Chain of Vasopressin V1a receptor (P37288 whole entry): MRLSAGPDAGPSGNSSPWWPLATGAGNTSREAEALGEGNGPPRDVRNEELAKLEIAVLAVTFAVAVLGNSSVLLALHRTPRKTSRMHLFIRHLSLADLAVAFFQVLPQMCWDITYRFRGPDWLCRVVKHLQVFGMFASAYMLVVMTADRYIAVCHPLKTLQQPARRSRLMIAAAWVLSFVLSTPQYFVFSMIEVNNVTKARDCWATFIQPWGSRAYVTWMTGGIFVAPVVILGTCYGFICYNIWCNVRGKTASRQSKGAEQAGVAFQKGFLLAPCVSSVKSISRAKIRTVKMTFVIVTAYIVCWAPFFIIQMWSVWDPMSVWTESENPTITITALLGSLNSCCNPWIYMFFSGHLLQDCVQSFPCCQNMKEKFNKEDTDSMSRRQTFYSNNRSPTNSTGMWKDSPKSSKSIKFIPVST
Another test has as its target Insulin receptor (Rattus norvegicus, UniProt P15127). It is filed as cell membranes, Wistar, Liver, Membrane. Note: in other assays of this panel Not Active means under 50% inhibition at 10 µM.
The target in test [2] is T2, Cysteinyl leukotriene receptor 1 (Homo sapiens, UniProt Q9Y271). Note: in other assays of this panel Not Active means under 50% inhibition at 10 µM.
T2 sequence (Q9Y271 whole entry): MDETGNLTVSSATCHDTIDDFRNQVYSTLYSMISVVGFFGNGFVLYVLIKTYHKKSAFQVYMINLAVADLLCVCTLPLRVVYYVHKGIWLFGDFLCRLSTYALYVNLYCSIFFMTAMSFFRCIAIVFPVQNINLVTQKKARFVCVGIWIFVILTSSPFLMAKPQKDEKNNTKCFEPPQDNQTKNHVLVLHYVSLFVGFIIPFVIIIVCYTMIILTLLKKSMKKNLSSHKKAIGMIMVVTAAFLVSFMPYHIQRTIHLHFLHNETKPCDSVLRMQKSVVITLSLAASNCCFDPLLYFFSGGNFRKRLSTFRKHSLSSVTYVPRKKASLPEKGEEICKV
It is filed as cell membranes, CHO-K1, Membrane. The settings on record: cho-k1.

In test [3] the target is T3, Neuropeptide Y receptor type 1 (Homo sapiens, UniProt P25929). Note: in other assays of this panel Not Active means under 50% inhibition at 10 µM.
T3 sequence (P25929 whole entry): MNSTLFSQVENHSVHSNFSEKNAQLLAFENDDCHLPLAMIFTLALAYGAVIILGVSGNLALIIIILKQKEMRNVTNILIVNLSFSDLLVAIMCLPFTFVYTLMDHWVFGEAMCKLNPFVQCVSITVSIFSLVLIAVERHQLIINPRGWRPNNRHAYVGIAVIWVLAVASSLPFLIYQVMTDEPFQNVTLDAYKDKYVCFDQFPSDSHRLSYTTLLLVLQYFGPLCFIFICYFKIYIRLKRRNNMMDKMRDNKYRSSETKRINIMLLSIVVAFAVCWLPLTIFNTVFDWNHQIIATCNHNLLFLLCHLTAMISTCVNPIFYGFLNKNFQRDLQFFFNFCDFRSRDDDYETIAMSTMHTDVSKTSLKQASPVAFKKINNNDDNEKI
In kind it is cell membranes, Membrane. The settings on record: sk-n-mc.

Test [4] deals with Mitogen-activated protein kinase 3 (Homo sapiens, UniProt P27361). The test can be described thus: DRUGMATRIX: Protein Serine/Threonine Kinase, ERK1 enzyme inhibition (substrate: Myelin Basic Protein). On the set-up: species or system Escherichia coli. The note with it: Not Active = under 50% inhibition at 10 µM.
Chain of Mitogen-activated protein kinase 3 (P27361 whole entry): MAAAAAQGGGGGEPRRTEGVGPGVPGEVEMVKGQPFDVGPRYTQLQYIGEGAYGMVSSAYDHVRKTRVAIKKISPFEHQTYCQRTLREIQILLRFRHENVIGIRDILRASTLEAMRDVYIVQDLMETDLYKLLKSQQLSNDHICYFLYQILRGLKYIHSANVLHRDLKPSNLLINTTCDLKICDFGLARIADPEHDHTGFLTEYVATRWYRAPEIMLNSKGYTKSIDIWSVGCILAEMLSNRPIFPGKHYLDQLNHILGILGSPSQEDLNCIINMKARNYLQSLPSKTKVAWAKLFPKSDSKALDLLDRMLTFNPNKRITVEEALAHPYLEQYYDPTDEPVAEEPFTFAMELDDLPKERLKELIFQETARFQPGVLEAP
The target of test [5] is T4, 5-hydroxytryptamine receptor 1A (Rattus norvegicus, UniProt P19327). Note: in other assays of this panel Not Active means under 50% inhibition at 10 µM.
T4 sequence (P19327 whole entry): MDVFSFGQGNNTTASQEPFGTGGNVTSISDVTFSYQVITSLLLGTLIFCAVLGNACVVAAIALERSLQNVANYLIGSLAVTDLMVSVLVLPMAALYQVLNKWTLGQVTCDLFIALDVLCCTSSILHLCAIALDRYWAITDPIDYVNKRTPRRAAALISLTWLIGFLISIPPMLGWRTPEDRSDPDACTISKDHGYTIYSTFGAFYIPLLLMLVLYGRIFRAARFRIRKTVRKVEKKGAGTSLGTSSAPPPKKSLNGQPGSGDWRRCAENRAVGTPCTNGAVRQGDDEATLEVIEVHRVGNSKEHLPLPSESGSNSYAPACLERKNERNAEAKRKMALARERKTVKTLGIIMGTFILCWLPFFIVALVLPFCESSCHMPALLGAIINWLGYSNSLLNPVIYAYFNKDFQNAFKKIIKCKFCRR
It is filed as cell membranes, CHO-K1, Membrane.

For another test, the target named is Acetylcholinesterase (Homo sapiens, UniProt P22303). The test can be described thus: DRUGMATRIX: Acetylcholinesterase enzyme inhibition (substrate: acetylthiocholine). In kind it is cell-based, HEK293. The note with it: hek293; Not Active = under 50% inhibition at 10 µM.
Chain of Acetylcholinesterase (P22303 whole entry): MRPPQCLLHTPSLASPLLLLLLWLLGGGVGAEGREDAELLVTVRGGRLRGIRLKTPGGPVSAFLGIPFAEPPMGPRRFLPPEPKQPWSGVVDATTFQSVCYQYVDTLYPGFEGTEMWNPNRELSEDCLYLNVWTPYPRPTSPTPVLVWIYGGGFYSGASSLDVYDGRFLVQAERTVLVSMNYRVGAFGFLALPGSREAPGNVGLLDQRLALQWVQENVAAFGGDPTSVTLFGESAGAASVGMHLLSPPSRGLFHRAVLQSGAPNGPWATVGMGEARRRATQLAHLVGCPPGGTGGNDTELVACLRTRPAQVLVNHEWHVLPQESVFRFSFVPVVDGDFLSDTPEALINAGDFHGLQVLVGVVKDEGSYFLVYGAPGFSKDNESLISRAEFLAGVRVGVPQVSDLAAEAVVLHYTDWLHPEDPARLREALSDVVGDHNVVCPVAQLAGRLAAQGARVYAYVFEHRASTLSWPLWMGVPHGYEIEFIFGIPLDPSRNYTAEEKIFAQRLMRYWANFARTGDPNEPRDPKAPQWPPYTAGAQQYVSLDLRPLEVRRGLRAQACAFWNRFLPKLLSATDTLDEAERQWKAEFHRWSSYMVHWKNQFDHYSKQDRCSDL
The next test addresses T5, Adenosine receptor A3 (Homo sapiens, UniProt P0DMS8).
T5 sequence (P0DMS8 whole entry): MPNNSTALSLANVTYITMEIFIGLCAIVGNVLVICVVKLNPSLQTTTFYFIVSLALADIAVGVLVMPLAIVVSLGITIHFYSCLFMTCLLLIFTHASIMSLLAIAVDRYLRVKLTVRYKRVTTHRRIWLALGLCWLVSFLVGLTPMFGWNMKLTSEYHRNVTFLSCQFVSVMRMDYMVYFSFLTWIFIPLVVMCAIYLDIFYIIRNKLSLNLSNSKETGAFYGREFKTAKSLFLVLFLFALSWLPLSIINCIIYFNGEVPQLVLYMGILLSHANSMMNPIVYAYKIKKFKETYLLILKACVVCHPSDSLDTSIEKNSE
It is filed as cell membranes, CHO-K1, Membrane. The settings on record: cho-k1.

Each structure is given as a SMILES string.

Chain of Insulin receptor (P15127 27-759 limits assumed): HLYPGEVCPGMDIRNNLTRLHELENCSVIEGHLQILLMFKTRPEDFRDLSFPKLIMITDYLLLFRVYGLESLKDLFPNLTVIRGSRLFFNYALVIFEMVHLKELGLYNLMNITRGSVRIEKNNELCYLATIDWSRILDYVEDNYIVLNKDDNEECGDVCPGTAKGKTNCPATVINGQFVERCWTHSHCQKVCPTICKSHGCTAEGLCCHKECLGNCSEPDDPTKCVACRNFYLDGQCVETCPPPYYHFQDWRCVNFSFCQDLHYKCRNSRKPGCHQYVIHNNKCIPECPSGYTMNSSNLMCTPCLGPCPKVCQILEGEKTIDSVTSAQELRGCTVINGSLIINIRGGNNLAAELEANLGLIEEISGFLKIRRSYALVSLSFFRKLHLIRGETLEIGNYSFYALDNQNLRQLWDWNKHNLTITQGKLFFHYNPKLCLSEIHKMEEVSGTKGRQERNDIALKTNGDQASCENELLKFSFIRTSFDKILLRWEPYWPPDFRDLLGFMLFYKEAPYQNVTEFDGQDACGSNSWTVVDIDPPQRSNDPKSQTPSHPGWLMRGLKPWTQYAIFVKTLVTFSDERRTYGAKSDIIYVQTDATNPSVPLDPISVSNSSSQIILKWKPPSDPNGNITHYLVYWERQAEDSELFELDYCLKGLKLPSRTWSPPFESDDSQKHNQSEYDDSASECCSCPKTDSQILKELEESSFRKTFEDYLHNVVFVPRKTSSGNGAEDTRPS
Chain of Insulin receptor (P15127 764-1383 limits assumed): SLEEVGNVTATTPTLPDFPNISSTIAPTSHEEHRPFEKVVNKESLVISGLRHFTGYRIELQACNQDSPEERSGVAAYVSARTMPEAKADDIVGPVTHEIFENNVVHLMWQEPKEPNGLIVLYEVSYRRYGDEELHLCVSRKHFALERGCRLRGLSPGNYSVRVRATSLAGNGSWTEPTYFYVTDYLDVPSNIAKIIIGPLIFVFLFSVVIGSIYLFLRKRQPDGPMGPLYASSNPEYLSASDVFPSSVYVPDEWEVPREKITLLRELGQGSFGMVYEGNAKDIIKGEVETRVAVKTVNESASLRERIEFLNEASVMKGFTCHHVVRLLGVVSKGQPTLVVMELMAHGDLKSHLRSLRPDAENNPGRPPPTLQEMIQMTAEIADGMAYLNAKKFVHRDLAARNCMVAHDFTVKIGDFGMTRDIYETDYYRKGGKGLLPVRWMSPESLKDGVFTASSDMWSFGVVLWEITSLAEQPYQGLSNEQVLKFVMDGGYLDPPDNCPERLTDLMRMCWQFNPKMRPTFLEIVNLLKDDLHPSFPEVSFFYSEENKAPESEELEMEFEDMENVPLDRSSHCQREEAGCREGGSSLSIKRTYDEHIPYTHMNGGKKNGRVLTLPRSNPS

On to `CN(C)[C@@H]1C(O)=C(C(N)=O)C(=O)[C@@]2(O)C(O)=C3C(=O)c4c(O)cccc4[C@@](C)(O)[C@H]3C[C@@H]12` [TETRACYCLINE], for which the half-maximal inhibitory concentration (IC50) result (in [1]; on Vasopressin V1a receptor; on Insulin receptor; in [2]; in test [3]; in [4]) was “Not Active” each time. Also, the IC50 result (in test [5] (cho-k1); on Acetylcholinesterase; against Adenosine receptor A3) was “Not Active” throughout.

As for `c1ccc2[nH]c(-c3cscn3)nc2c1` [THIABENDAZOLE], the IC50 entry (in test [1]; at Vasopressin V1a receptor; against Insulin receptor; in [2]; in [3]; in test [4]) was “Not Active” throughout. Also, the concentration for half-maximal inhibition (IC50) entry (in [5] (cho-k1); at Acetylcholinesterase; against Adenosine receptor A3) was “Not Active” throughout.

For `CSc1ccc2c(c1)N(CCC1CCCCN1C)c1ccccc1S2` (stereo unspecified) [THIORIDAZINE], the IC50 is 5.09 nM in [1] (read-out: IC50); “Not Active” against Vasopressin V1a receptor; “Not Active” on Insulin receptor; “Not Active” in test [2]; “Not Active” in test [3]; “Not Active” in [4]. For the same molecule, the values for the IC50 (in [5] (read-out: IC50); against Acetylcholinesterase; at Adenosine receptor A3) were 60 nM, “Not Active” and “Not Active”, respectively. Also, the Ki in test [1] (read-out: Ki) was found to be 2.06 nM; in [5] (read-out: Ki), 34 nM.

With `Cc1ccc(C(=O)C(C)CN2CCCCC2)cc1` (stereo unspecified) [TOLPERISONE], the IC50 result (in test [1]; on Vasopressin V1a receptor; on Insulin receptor; in test [2]; in test [3]; in [4]) was “Not Active” each time. The half-maximal inhibitory concentration (IC50) result (in [5] (cho-k1); against Acetylcholinesterase; on Adenosine receptor A3) was “Not Active” each time.

Turning to `COc1cccc(C2(O)CCCCC2CN(C)C)c1` (stereo unspecified) [TRAMADOL], the 50% inhibitory concentration (IC50) result (in test [1]; on Vasopressin V1a receptor; against Insulin receptor; in [2]; in test [3]; in [4]) was “Not Active” throughout. Moreover, the IC50 result (in test [5] (cho-k1); on Acetylcholinesterase; against Adenosine receptor A3) was “Not Active” each time.

Take `NC(CO)(CO)CO` [TROMETHAMINE]: the half-inhibitory concentration (IC50) entry (in [1]; against Vasopressin V1a receptor; on Insulin receptor; in [2]; in test [3]; in [4]) was “Not Active” each time. The IC50 entry (in [5] (cho-k1); on Acetylcholinesterase; against Adenosine receptor A3) was “Not Active” in each case.

Regarding `CN1[C@@H]2CC[C@H]1C[C@@H](OC(=O)c1c[nH]c3ccccc13)C2` [TROPISETRON], the IC50 entry (in test [1]; at Vasopressin V1a receptor; on Insulin receptor; in test [2]; in test [3]; in test [4]) was “Not Active” throughout. The IC50 entry (in test [5] (cho-k1); against Acetylcholinesterase; on Adenosine receptor A3) was “Not Active” throughout.

For `COc1cc(C(=O)NC2CCCNC2)cc(OC)c1OC` (stereo unspecified) [TROXIPIDE], the IC50 entry (in test [1]; at Vasopressin V1a receptor; against Insulin receptor; in test [2]; in test [3]; in test [4]) was “Not Active” each time. The IC50 entry (in test [5] (cho-k1); against Acetylcholinesterase; against Adenosine receptor A3) was “Not Active” in each case.

`CC(C)[C@H](N)C(=O)OCCOCn1cnc2c(=O)nc(N)[nH]c21` [VALACYCLOVIR]: the IC50 entry (in test [1]; on Vasopressin V1a receptor; against Insulin receptor; in test [2]; in [3]; in test [4]) was “Not Active” in each case. Besides, the IC50 result (in [5] (cho-k1); against Acetylcholinesterase; at Adenosine receptor A3) was “Not Active” throughout.

As for `CN[C@H](CC(C)C)C(=O)N[C@H]1C(=O)N[C@@H](CC(N)=O)C(=O)N[C@H]2C(=O)N[C@H]3C(=O)N[C@H](C(=O)N[C@H](C(=O)O)c4cc(O)cc(O)c4-c4cc3ccc4O)[C@H](O)c3ccc(c(Cl)c3)Oc3cc2cc(c3O[C@@H]2O[C@H](CO)[C@@H](O)[C@H](O)[C@H]2O[C@H]2C[C@](C)(N)[C@H](O)[C@H](C)O2)Oc2ccc(cc2Cl)[C@H]1O` [VANCOMYCIN], the IC50 result (in [1]; against Vasopressin V1a receptor; on Insulin receptor; in test [2]; in test [3]; in test [4]) was “Not Active” throughout. For the same molecule, the IC50 result (in test [5] (cho-k1); against Acetylcholinesterase; against Adenosine receptor A3) was “Not Active” throughout.

For `COc1ccc(C(CN(C)C)C2(O)CCCCC2)cc1` (stereo unspecified) [VENLAFAXINE], the IC50 result (in test [1]; against Vasopressin V1a receptor; against Insulin receptor; in test [2]; in [3]; in test [4]) was “Not Active” throughout. Besides, the IC50 entry (in test [5] (cho-k1); on Acetylcholinesterase; at Adenosine receptor A3) was “Not Active” in each case.
